The values that follow come from patent publication US9296694B2, “Azacyclic compounds” (ACADIA Pharmaceuticals Inc., priority 2000, dated 2016).

Where a name gives a salt, the structure may show the parent alone.

What all share (test): R-SAT selectivity profile of 26HCH16D
In one test the target is T1, H1 (Homo sapiens, UniProt P35367).
T1 construct: expressed in transfected cells; host or cells: NIH3T3, pSI vector
It is filed as cell-based. The procedure:
(§1) The functional receptor assay, Receptor Selection and Amplification Technology (R-SAT), was used (with minor modifications from that previously described U.S. Pat. No. 5,707,798) to screen compounds for efficacy at the 5-HT2A receptor. Briefly, NIH3T3 cells were grown in 96 well tissue culture plates to 70-80% confluence. Cells were transfected for 12-16 hours with plasmid DNAs using superfect (Qiagen Inc.) as per manufacture's protocols. R-SAT's were generally performed with 50 ng/well of receptor and 20 ng/well of Beta-galactosidase plasmid DNA. All receptor and G-protein constructs used were in the pSI mammalian expression vector (Promega Inc) as described in U.S. Pat. No. 5,707,798. The 5HT2A receptor gene was amplified by nested PCR from brain cDNA using the oligodeoxynucleotides based on the published sequence (see Saltzman et. al. Biochem. Biophys. Res. Comm. 181:1469-78 (1991)). Large-scale transfections, cells were transfected for 12-16 hours, then trypsinized and frozen in DMSO. Frozen cells were later thawed, plated at 10,000-40,000 cells per well of a 96 well plate that contained drug. With both methods, cells were then grown in a humidified atmosphere with 5% ambient CO2 for five days. Media was then removed from the plates and marker gene activity was measured by the addition of the beta-galactosidase substrate ONPG (in PBS with 5% NP-40). The resulting colorimetric reaction was measured in a spectrophotometric plate reader (Titertek Inc.) at […]. All data were analyzed using the computer program XLFit (IDBSm). Efficacy is the percent maximal repression compared to repression by a control compound (ritanserin in the case of 5HT2A). pIC50 is the negative of the log(IC50), where IC50 is the calculated concentration in Molar that produces 50% maximal repression.
(§2) R-SAT assays (as described in Example 42) were carried out with cells transfected with receptors (listed below) to determine the receptor selectivity profile for compound 26HCH16D. 5HT2A inverse agonist data (IC50 nM; % efficacy) were derived from detailed dose response curves (7 points in triplicate).

The target in the next test is T2, alpha1a/D (Rattus norvegicus, UniProt P23944).
T2 construct: expressed in transfected cells; host or cells: NIH3T3, pSI vector
T2 sequence (P23944 1-561): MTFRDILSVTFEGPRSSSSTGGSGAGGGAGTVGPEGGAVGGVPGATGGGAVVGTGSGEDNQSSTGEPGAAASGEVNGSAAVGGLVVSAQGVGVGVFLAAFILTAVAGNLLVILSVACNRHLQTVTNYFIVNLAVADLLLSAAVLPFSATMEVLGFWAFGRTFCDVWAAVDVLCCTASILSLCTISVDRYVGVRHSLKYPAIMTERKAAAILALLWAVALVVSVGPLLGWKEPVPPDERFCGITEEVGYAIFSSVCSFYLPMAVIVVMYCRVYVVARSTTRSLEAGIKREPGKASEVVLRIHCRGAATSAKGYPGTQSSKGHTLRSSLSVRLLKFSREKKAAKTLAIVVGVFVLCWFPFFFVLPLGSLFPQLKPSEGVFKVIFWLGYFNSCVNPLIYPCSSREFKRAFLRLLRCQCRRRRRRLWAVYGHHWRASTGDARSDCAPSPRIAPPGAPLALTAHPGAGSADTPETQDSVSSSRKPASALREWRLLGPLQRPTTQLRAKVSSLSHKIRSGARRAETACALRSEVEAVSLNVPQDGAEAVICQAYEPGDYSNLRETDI
It counts as cell-based. Conditions: 4 doses in duplicate (3, 30, 300, 3000 nM). The procedure: as §1, §2

In a further test the target is T3, 5HT2C (Homo sapiens, UniProt P28335).
T3 construct: expressed in transfected cells; host or cells: NIH3T3, pSI vector
T3 sequence (P28335 33-458): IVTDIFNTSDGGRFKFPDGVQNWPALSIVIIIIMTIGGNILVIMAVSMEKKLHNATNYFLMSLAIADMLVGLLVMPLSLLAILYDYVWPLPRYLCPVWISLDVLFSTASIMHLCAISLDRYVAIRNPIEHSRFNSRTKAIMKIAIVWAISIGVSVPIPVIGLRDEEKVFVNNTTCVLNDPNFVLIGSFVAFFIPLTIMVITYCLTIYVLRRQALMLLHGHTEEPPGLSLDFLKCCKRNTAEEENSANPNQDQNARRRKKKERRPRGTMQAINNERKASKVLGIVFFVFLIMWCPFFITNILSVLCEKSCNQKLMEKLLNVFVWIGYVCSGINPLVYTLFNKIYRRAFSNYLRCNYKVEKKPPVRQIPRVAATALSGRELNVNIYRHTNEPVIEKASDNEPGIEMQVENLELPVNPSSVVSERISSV
It counts as cell-based. Conditions: Inverse Agonist; 4 dose profiling. The procedure:
as §1, §2

The next test addresses T4, alpha1b/B (Mesocricetus auratus, UniProt P18841).
T4 construct: expressed in transfected cells; host or cells: NIH3T3, pSI vector
T4 sequence (P18841 1-515): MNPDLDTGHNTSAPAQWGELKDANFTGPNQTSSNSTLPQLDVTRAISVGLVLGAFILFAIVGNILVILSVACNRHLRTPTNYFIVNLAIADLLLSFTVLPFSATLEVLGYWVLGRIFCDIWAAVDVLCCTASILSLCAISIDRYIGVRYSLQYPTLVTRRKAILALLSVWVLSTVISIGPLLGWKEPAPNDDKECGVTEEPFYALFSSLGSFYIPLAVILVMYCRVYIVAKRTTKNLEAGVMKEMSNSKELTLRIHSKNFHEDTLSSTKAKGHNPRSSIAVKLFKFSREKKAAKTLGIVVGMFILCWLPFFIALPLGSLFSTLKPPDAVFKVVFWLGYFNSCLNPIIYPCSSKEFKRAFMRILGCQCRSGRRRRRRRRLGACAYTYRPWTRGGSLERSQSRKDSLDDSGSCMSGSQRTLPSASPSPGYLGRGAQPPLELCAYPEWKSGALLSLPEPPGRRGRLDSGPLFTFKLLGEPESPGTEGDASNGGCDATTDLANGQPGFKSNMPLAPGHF
It is filed as cell-based, hamster. Conditions: 4 doses in duplicate (3, 30, 300, 3000 nM). As for the experimental part: as §1, with “Frozen cells were later thawed, plated at 10,000-40,000 cells per well of a 96 well plate that contained drug. With both methods, cells were then grown in a humidified atmosphere with 5% ambient CO2 for five days.” left out, “Efficacy is the percent maximal repression compared to repression by a control compound (ritanserin in the case of 5HT2A). pIC50 is the negative of the log(IC50), where IC50 is the calculated concentration in Molar that produces 50% maximal repression.” left out

T1 sequence (P35367 whole entry): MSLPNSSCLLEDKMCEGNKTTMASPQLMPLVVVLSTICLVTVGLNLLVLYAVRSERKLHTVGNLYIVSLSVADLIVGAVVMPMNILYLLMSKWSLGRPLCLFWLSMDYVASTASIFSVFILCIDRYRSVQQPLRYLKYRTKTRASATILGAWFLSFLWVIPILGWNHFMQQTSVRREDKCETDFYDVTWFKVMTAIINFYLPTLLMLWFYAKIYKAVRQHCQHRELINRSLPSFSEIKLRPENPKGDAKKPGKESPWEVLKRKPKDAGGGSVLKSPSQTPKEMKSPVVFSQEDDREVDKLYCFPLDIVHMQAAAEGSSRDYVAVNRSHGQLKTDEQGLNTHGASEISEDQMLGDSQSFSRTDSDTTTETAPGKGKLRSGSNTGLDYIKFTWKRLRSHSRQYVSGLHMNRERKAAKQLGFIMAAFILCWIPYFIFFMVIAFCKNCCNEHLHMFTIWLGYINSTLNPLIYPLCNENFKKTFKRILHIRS

Regarding `Cc1ccc(CN(C(=O)NCc2ccccc2)C2CCN(Cc3ccccc3)CC2)cc1` [Compound 26HCH16D, N-((4-Methylphenyl)methyl)-N-(1-(phenylmethyl)piperidin-4-yl)-N′-phenylmethylcarbamide hydrochloride], the Efficacy result on H1 (Agonist, 4 doses in duplicate (3, 30, 300, 3000 nM)) is “nr (nr=activity less than 30% at all doses tested (3, 30, 300, 3000 nM), therefore EC50/IC50 greater than 3000 nM))”; at alpha1a/D (Agonist), “nr (nr=activity less than 30% at all doses tested (3, 30, 300, 3000 nM), therefore EC50/IC50 greater than 3000 nM))”; on alpha1a/D (Antagonist) it was “nr (nr=activity less than 30% at all doses tested (3, 30, 300, 3000 nM), therefore EC50/IC50 greater than 3000 nM))”; at alpha1b/B (Agonist) it was “nr (nr=activity less than 30% at all doses tested (3, 30, 300, 3000 nM), therefore EC50/IC50 greater than 3000 nM))”; at alpha1b/B (Antagonist), “nr (nr=activity less than 30% at all doses tested (3, 30, 300, 3000 nM), therefore EC50/IC50 greater than 3000 nM))”. Further, the “initial concentration at which at least 30% efficacy observed” value at H1 (Antagonist, 4 dose profiling) is listed as 3000 nM; on 5HT2C, 3000 nM.
